Source: ChEMBL document CHEMBL3046630, “Isolation and antifungal and antioomycete activities of staurosporine from Streptomyces roseoflavus strain LS-A24” (J Agric Food Chem, 2006)
The source made the active and inactive calls. No cut-off for these calls is given here.

Assays:
[1] = tested on: Phytophthora capsici; assay: Antioomycete activity against Phytophthora capsici zoospores suspension infected in pepper plants (cv. Hanbyul) at first branch stage pre-exposed to compound spray on stems before fungal infection assessed as reduction in Phyophthora blight disease severity at 1 to 1000 ug/mL under greenhouse conditions; format: functional, organism-based
[2] = tested on: Capsicum annuum; assay: Phytotoxicity in Phytophthora capsici zoospores suspension infected Capsicum annuum cv. Hanbyul (pepper) at first branch stage pre-exposed to compound spray on stems before fungal infection at 500 ug/mL under greenhouse conditions; format: organism-based; details: in vivo, other
[3] = tested on: Phytophthora capsici; assay: Antioomycete activity against Phytophthora capsici zoospores suspension infected in pepper plants (cv. Hanbyul) at first branch stage pre-exposed to compound spray on stems before fungal infection assessed as reduction in Phyophthora blight disease severity at 500 ug/mL under greenhouse conditions; format: functional, organism-based
[4] = tested on: Phytophthora capsici; assay: Antioomycete activity against Phytophthora capsici zoospores suspension infected in pepper plants (cv. Hanbyul) at first branch stage pre-exposed to compound spray on stems before fungal infection assessed as reduction in Phyophthora blight disease severity at 100 ug/mL under greenhouse conditions; format: functional, organism-based

Row | Structure (SMILES) | Activity [1] | Activity [2] | Activity [3] | Activity [4]
1 | CN[C@@H]1C[C@H]2O[C@@](C)([C@@H]1OC)n1c3ccccc3c3c4c(c5c6ccccc6n2c5c31)C(=O)NC4 [STAUROSPORINE] | Dose-dependent effect | Non-toxic | Active | –
2 | COCC(=O)N(c1c(C)cccc1C)C(C)C(=O)OC (stereo not given) | Dose-dependent effect | – | – | Active
